# System: Mycobacterium tuberculosis
# Assay: Antimycobacterial activity against Mycobacterium tuberculosis by agar dilution method
# Format: functional
row,SMILES,MIC
1,COc1ccc(/C=N/NC(=O)CN2N=C(C)CCC2=O)cc1,25 µM
2,CC1=NN(CC(=O)N/N=C/c2ccc(Cl)cc2)C(=O)CC1,3.13 µM
3,CC1=NN(CC(=O)N/N=C/c2ccc(N(C)C)cc2)C(=O)CC1,12.5 µM
4,CC1=NN(CC(=O)N/N=C(\C)c2ccc(-c3ccccc3)cc2)C(=O)CC1,25 µM
5,CC1=NN(CC(=O)N/N=C/c2ccc([N+](=O)[O-])cc2)C(=O)CC1,6.25 µM
6,CC1=NN(CC(=O)NN)C(=O)CC1,25 µM
7,CO[C@H]1/C=C/O[C@@]2(C)Oc3c(C)c(O)c4c(O)c(c(/C=N/N5CCN(C)CC5)c(O)c4c3C2=O)NC(=O)/C(C)=C\C=C\[C@H](C)[C@H](O)[C@@H](C)[C@@H](O)[C@@H](C)[C@H](OC(C)=O)[C@@H]1C [RIFAMPIN],0.1 µM
8,CC1=NN(CC(=O)N/N=C(\C)c2ccc(Cl)cc2Cl)C(=O)CC1,12.5 µM
9,CC1=NN(CC(=O)N/N=C/c2ccc(Br)cc2)C(=O)CC1,1.56 µM
10,CC1=NN(CC(=O)N/N=C/c2ccc(F)cc2)C(=O)CC1,1.56 µM
11,CC[C@@H](CO)NCCN[C@@H](CC)CO [ETHAMBUTOL],1.56 µM
12,CC1=NN(CC(=O)N/N=C(\C)c2ccc(C)cc2)C(=O)CC1,25 µM
13,NNC(=O)c1ccncc1 [ISONIAZID],0.05 µM
14,CC1=NN(CC(=O)N/N=C/c2cccs2)C(=O)CC1,25 µM
15,CC1=NN(CC(=O)N/N=C(\C)c2ccc(Br)cc2)C(=O)CC1,12.5 µM
16,CC1=NN(CC(=O)N/N=C/c2ccccc2)C(=O)CC1,12.5 µM
17,CC1=NN(CC(=O)N/N=C(\C)c2ccccc2)C(=O)CC1,25 µM
18,CC1=NN(CC(=O)N/N=C(\C)c2ccc([N+](=O)[O-])cc2)C(=O)CC1,12.5 µM
19,CNC(=S)NNC(=O)CN1N=C(C)CCC1=O,> 25 µM
20,CCOc1ccc(/C=N/NC(=O)CN2N=C(C)CCC2=O)cc1,> 25 µM
21,CC1=NN(CC(=O)N/N=C/c2ccc(Cl)cc2Cl)C(=O)CC1,0.78 µM
22,CC1=NN(CC(=O)N/N=C/c2ccc(C)cc2)C(=O)CC1,12.5 µM
23,CCNC(=S)NNC(=O)CN1N=C(C)CCC1=O,> 25 µM
24,CC1=NN(CC(=O)N/N=C(\C)c2ccc(Cl)cc2)C(=O)CC1,12.5 µM
25,O=C(O)c1cn(C2CC2)c2cc(N3CCNCC3)c(F)cc2c1=O [CIPROFLOXACIN],1.56 µM
26,CC1=NN(CC(=O)NNC(=S)Nc2ccccc2)C(=O)CC1,> 25 µM
27,COc1ccc(/C(C)=N/NC(=O)CN2N=C(C)CCC2=O)cc1,25 µM
28,CC1=NN(CC(=O)N/N=C/c2ccc(C(F)(F)F)cc2)C(=O)CC1,1.56 µM
29,CC1=NN(CC(=O)N/N=C/c2ccco2)C(=O)CC1,> 25 µM
